{"source": "patent US8153559B2", "about": "“Certain plant growth regulators (PGRs) as safener to Glyphosate for application to Glyphosate-tolerant crops” (CP Bio, Inc., priority 2004, dated 2012)", "test_system": "Round-Up Ready crops", "assay": "Field tests on use of Glyphosate on Round-Up Ready crops", "type": "in vivo", "conditions": "Glyphosate-tolerant (Round-Up Ready) crops", "from_the_text": "This adverse effect is referred to as the Glyphosate's phytotoxicity in present application.", "data": [{"smiles": "O=C(O)CNCP(=O)(O)O", "note": "[Glyphosate]", "values": [{"measurement": "effect on the growth of Round-Up Ready crops (Glyphosate's phytotoxicity)", "value": "substantial adverse effect to the growth"}]}]}
